Assays:
[1] = molecular target: HDAC3 (with DAD of NCoR2) (Homo sapiens, UniProt O15379); experiment: fluorogenic activity assay with added InsP6; format: biochemical; conditions: activator; stabilises the HDAC3/NCoR2 DAD complex
[2] = molecular target: HDAC1 (Homo sapiens, UniProt Q13547); experiment: continuous fluorogenic AMC assay, progression curves, kobs fit; format: biochemical
Sequence of HDAC1 (Q13547 whole entry): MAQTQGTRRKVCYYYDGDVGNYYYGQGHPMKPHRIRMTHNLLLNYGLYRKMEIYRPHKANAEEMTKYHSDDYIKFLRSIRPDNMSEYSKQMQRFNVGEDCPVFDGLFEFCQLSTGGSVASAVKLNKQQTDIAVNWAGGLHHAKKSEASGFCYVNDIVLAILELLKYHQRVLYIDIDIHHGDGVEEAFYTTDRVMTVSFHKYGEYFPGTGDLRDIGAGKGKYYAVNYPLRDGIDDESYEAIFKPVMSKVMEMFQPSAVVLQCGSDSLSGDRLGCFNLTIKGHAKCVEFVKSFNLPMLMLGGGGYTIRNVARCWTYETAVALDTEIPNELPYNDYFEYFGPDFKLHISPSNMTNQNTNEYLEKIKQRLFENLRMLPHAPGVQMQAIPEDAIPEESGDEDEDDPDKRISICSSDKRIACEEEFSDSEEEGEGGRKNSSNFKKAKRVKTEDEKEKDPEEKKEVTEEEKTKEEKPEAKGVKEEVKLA

Sequence of HDAC3 (with DAD of NCoR2) (O15379 whole entry): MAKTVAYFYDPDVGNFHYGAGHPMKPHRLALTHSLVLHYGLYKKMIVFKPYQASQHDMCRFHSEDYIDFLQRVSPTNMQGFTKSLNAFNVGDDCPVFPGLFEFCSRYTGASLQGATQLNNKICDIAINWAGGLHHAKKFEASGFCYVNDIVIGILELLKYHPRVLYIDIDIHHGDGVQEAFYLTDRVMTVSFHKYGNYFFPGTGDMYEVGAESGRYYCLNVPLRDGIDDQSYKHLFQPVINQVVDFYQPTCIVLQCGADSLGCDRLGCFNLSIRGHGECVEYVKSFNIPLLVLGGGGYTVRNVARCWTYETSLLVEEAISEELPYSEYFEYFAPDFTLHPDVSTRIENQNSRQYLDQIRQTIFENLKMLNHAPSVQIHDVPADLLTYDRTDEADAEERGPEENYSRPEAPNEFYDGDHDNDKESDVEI
Sequence of HDAC3 (with DAD of NCoR2) (Q9Y618 395-489 partner limits assumed): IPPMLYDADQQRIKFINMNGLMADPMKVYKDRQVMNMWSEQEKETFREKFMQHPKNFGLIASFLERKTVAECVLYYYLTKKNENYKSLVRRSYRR

SMILES | fluorogenic activity assay with added InsP6 [1] | Ki [2] [nM]
O=P(O)(O)O[C@H]1[C@H](OP(=O)(O)O)[C@@H](OP(=O)(O)O)[C@H](OP(=O)(O)O)[C@@H](OP(=O)(O)O)[C@H]1OP(=O)(O)O [inositol hexaphosphate] | Addition of InsP6 enhanced HDAC activity | 
CCCNNC(=O)c1ccc(CNC(=O)/C=C/c2ccccc2)cc1 [compound 5] |  | ~40

Source: doi:10.1101/2021.12.18.473277v2 (biorxiv, 2022)
